Converted amounts (≈) assume the structure as drawn.
Columns and labels:
IDS immunoassay antibody = conditions: Table 2, IDS commercial immunoassay; cited from earlier work
[1] = test system: carisoprodol-specific antibody raised from Immunogen 2; assay: Immunoassay with carisoprodol-specific antibody raised from Immunogen 2 (Table 1); assay type: binding; conditions: Table 1, antibody raised from Immunogen 2 as titled
[2] = test system: Ig fractions of the antisera raised to Immunogen 4; assay: Competitive ELISA with antibodies raised to Immunogen 4 (Randox immunoassay of the invention); assay type: binding, sheep; conditions: for % CR: based on 100% specificity to meprobamate; for CR (cross-reactivity): relative to meprobamate = 100%
Protocol: An aqueous solution of Immunogen 4 was formulated with Freund's Complete Adjuvant (FCA) to form an emulsion consisting of 2 mg/ml immunogen in 50% (v/v) FCA. Three sheep were immunised with this emulsion (1° immunisation), 0.25 ml being intramuscularly injected at each of four sites in the rump of each animal. Subsequent immunizations (boosts) contained 1 mg/ml immunogen. All boosts were emulsified in 50% (v/v) Freund's Incomplete Adjuvant (FIA) and were administered in the same manner as the 1° immunisation, at monthly intervals for 1 year. Blood sampling took place 7 to 14 days after each boost. Each sample was processed to produce antiserum, which was further purified by caprylic acid and ammonium sulfate precipitation to yield an immunoglobulin (Ig) fraction. The Ig fraction was evaluated by competitive ELISA microtiter plate assay, as described in Example 16.
The wells of an enhanced binding 96 well polystyrene microtiter plate were coated with a mixture of the Ig fractions of the antisera raised to Immunogen 4, diluted in 10 mM Tris, pH8.5 (125 μl/well). The appropriate antibody coating dilution was determined using standard ELISA checkerboard techniques. The plate was incubated for 2 hours at 37° C., washed 4 times with Tris buffered saline containing Tween 20 (TBST) and tapped dry. Standard solutions of meprobamate, carisoprodol and mebutamate were prepared in TBST at 0, 0.1, 1.0, 5, 10, 25, 50 and 100 ng/ml, and 50 μl of each was added to the appropriate wells.
The conjugate prepared in Example 14 diluted in Tris buffer (pH 7.2) containing EDTA, D-mannitol, sucrose, thimerosal and BSA, was added to each of the wells. The appropriate dilution of conjugate was also determined using standard ELISA checkerboard techniques. The plate was incubated at 25° C. for 1 hour. Excess unbound conjugate was removed by washing 6 times over a 10 minute period with TBST. 125 μl of tetramethylbenzidine (TMB) substrate solution was added to each well of the plate that was then incubated for 20 minutes in the dark at room temperature. The reaction was terminated by addition of 125 μl 0.2M H2SO4 to each well. The absorbance was then measured at 450 nm using a microtiter plate reader.

[3] = test system: Immunalysis immunoassay antibody; conditions: Table 2, Immunalysis; data from Robertson and Marinetti, 2003; cited from earlier work
[4] = cited from earlier work
[5] = Table 2, Randox immunoassay, concentration producing 50% B/B0
[6] = competitive ELISA, Hapten-B-HRP conjugate, absorbance 450 nm, standard concentration producing 50% B/B0

Compound | % CR (IDS immunoassay antibody) [%] | IC50 (IDS immunoassay antibody) [µg/mL] | % CR [1] [%] | IC50 [1] [µg/mL] | % CR ([2]; Table 2, Randox immunoassay) [%] | IC50 [2, 5] [µg/mL] | IC50 [2, 6] [µg/mL] | CR (cross-reactivity) ([2]; competitive ELISA) [%] | % CR [3] [%] | IC50 [3] [µg/mL] | serum half-life ([4]; serum) | time detectable in serum ([4]; serum, not detectable beyond this time (Olsen et al 1994)) [h] | excreted unchanged in urine ([4]; single orally administered carisoprodol tablet (350 mg)) | plasma half-life ([4]; plasma) [h] | excreted unchanged in the urine ([4]; urine)
CCCC(C)(COC(N)=O)COC(=O)NC(C)C (centres unmarked) [carisoprodol] | 100 | 0.0006 (≈ 0.0023 µM) | 57 | 0.015 (≈ 0.0576 µM) | 57 | 0.015 | 0.01515 | 57 | 100 | 0.025 (≈ 0.096 µM) | under 2 hours | ≤ 12 | less than 1% | – | –
CCC(C)C(C)(COC(N)=O)COC(N)=O (centres unmarked) [mebutamate] | – | – | – | – | – | – | – | 7 | – | – | – | – | – | – | –
CCCC(C)(COC(N)=O)COC(N)=O [meprobamate] | <0.01 | >6 | 100 | 0.008 (≈ 0.0367 µM) | 100 | 0.008 | 0.00864 | 100 | 19 | 0.132 (≈ 0.605 µM) | – | – | – | 6 to 16 | 10-12%
